The source of these data is patent publication US4283422A (priority 1979, dated 1981).

Counter-ions that a name gives are not always drawn. Like-named read-outs stand apart in the source and are kept apart here. A value given as a limit tells only on which side of the number the result lay.

The test system of data set [1] is Influenza A/PR/3/34 (HO, Nl) strain. Briefly: microbe, parasite or virus in culture. Format: cell-based. The settings on record: for HA-titer / MIC: MDCK cells; for HA-titer: 34° C., 3 days, control 256; for MIC: 72 h, Influenza virus; for inhibitory effects on Influenza virus growth: comparison of the two compounds, in words.
In data set [2] the test system is MDCK cells. The settings on record: 3 days, microscopic CTE.
A short description of data set [3]: in vitro. The settings on record: dog, mdck.
Data set [4] relates to Newcastle disease virus. The conditions noted are these: Koji Aigami et al., J. of Medicinal Chemistry, vol. 19, 536 (1976); cited from earlier work.

Turning to `CN(C)C12CCCC3CC(CCC31)C2` (stereo not shown), the values for the HA-titer in data set [1] (12.5 mcg/ml), in data set [1] (25.0 mcg/ml) and in data set [1] (50.0 mcg/ml) were 64, 64 and under 4, respectively. In data set [1], this molecule yielded an MIC of under 12.5 µg/mL. The “inhibitory effects on Influenza virus growth” value in data set [1] is “equivalent inhibitory effects on Influenza virus growth”. Moreover, the Cytotoxicity result in data set [2] (25.0 mcg/ml) was “(±) (CTE is less than 10% of cells.)”; in data set [2] (50.0 mcg/ml) it was “(+) (CTE is more than 10% and less than 50% of cells.)”. In addition, in data set [3], the MNTC at 72 h was 25 µg/mL.
As to `NC12CCCC3CC(CCC31)C2` (stereo not shown) [3-amino-4-homoisotwistane hydrochloride], the “antiviral activity against Newcastle disease virus” value in data set [4] is “have antiviral activity against Newcastle disease virus”.
In the case of `NC12CC3CC(CC(C3)C1)C2` [Amantadine hydrochloride], the HA-titer in data set [1] (12.5 mcg/ml) was 64; in data set [1] (25.0 mcg/ml) it was under 4. In data set [1], this molecule yielded an MIC of under 12.5 µg/mL. The “inhibitory effects on Influenza virus growth” value in data set [1] was “equivalent inhibitory effects on Influenza virus growth”. Further, the Cytotoxicity entry is “(±) (CTE is less than 10% of cells.)” in data set [2] (12.5 mcg/ml); “(+) (CTE is more than 10% and less than 50% of cells.)” in data set [2] (25.0 mcg/ml). The molecule also came in with an MNTC at 72 h in data set [3] of 12.5 µg/mL.
